pIC50: −log10 of the molar value.

Here are results for 5 compounds from US9518046B2 (Calitor Sciences, LLC, priority 2015, dated 2016).

Data set [1] addresses T1, PI3K (h) p110β/p85α (Homo sapiens, UniProt P42338).
T1 construct: purchased Millipore UK Ltd
Put plainly: PI3K (p110β/p85α) (h) non-radioactive HTRF kinase assay. Format: biochemical. To be noted: Kinase inhibition data; performed at Millipore UK Ltd. A general note: TR-FRET usually uses a lanthanide donor and a delayed reading to cut background.

Data set [2] in a line: Pharmacokinetics after intravenous and oral administration in rats. Format: in vivo. To be noted: for CL/F / bioavailability: Rats; for CL/F: iv dosing, dose 1 mg/kg (0.5 for Ex. 1, 10, 11, 35; 0.48 for Ex. 24); for AUC(0-t) / half-life / Vd / bioavailability: rat, plasma; for AUC(0-t) / half-life / Vd: iv, 1 mg/kg; for Vd: read-out: Vss; for bioavailability: oral (p.o.) generally 5 or 10 mg/kg versus iv dosing. A digest of the protocol:
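Dosing used solution, suspension or capsule formulations: 1 or 2 mg/kg IV in all species; PO 5 or 10 mg/kg in mice and rats, 10 mg/kg in dogs and monkeys. Plasma sampled from 0.083 or 0.25 h up to 24 h post-dose; concentrations determined by LC/MS/MS in MRM mode.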

Data set [3] is described as follows: Compound stability in rat liver microsomes. Format: in vitro ADME. To be noted: for CLint scaled at 5 μM: liver microsomes, pH 7.4, in vivo CLint extrapolated from rat liver microsome incubation; for half-life at 5 μM: rat liver microsomes 0.5 mg protein/mL, compound 5 μM, NADPH 1.0 mM, pH 7.4, 37° C., read-out: Rat T1/2. The method, then: (§1) Human or rat liver microsomes incubations were conducted in duplicate in polypropylene tubes. The typical incubation mixtures consisted of human or rat liver microsomes (0.5 mg protein/mL), compounds of interest (5 μM) and NADPH (1.0 mM) in a total volume of 200 μL potassium phosphate buffer (PBS, 100 mM, pH 7.4). Compounds were dissolved in DMSO and diluted with PBS such that the final concentration of DMSO was 0.05%. The enzymatic reactions were commenced with the addition of protein after a 3-min preincubation and incubated in a water bath open to the air at 37° C. Reactions were terminated at various time points (0, 5, 10, 15, 30, 60 min) by adding equal volume of ice-cold acetonitrile. The samples were stored at −80° C. until LC/MS/MS assays.
(§2) The concentrations of compounds in the incubation mixtures of human or rat liver microsomes were determined by a LC/MS/MS method. The ranges of the linearity in the concentration range were determined for each tested compounds.
(§3) A parallel incubation was performed using denatured microsomes as the negative control, and reactions were terminated at various time points (0, 15, 60 min) after incubation at 37° C.
(§4) Dextromethorphan (70 μM) was selected as the positive control, and reactions were terminated at various time points (0, 5, 10, 15, 30, 60 min) after incubation at 37° C. Both positive and negative control samples were included in each assay to ensure the integrity of the microsomal incubation system.
(§5) The concentrations of compounds in human or rat liver microsome incubations were plotted as a percentage of the relevant zero time point control for each reaction. The in vivo CLint were extrapolated (ref.: Naritomi, Y.; Terashita, S.; Kimura, S.; Suzuki, A.; Kagayama, A.; and Sugiyama, Y.; Prediction of human hepatic clearance from in vivo animal experiments and in vitro metabolic studies with liver microsomes from animals and humans. Drug Metab. Dispos., 2001, 29: 1316-1324).

For data set [4], the target named is T2, PI3K (p120γ) (h) (Homo sapiens, UniProt P48736).
T2 construct: purchased Millipore UK Ltd
T2 sequence (P48736 whole entry): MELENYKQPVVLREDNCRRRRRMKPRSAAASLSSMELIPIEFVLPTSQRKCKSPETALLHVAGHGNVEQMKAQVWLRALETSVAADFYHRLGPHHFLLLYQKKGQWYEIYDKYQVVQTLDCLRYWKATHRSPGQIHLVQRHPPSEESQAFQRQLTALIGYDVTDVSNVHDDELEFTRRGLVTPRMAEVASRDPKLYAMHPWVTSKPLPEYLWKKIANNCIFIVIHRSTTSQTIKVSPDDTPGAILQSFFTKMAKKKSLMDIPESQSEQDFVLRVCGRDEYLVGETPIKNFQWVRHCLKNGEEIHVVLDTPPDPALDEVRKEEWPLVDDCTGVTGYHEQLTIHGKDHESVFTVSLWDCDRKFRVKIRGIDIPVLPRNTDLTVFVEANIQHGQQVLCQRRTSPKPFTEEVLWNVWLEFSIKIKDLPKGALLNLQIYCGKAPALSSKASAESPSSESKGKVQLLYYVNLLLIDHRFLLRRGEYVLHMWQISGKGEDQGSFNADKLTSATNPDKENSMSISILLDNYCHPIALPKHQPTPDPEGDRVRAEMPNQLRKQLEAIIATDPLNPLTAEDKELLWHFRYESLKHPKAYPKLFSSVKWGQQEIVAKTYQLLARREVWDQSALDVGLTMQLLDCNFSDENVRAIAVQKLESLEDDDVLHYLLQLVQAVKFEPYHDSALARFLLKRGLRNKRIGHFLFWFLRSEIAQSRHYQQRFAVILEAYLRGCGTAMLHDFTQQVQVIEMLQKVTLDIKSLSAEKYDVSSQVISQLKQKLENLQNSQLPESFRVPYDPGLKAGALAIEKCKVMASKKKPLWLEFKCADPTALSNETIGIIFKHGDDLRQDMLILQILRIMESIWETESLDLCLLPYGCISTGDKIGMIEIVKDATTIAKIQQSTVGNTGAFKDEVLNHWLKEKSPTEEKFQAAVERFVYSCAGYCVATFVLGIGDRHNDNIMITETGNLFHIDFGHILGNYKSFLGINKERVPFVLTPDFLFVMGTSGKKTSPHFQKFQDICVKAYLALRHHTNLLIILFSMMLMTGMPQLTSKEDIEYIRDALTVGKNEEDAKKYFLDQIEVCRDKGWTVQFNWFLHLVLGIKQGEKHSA
Put plainly: PI3K (p120γ) (h) non-radioactive HTRF kinase assay. The conditions noted are these: Kinase inhibition data; performed at Millipore UK Ltd. Format: biochemical. The method, then: (§6) The above assay procedure can be used to determine the IC50 for inhibition and/or the inhibition constant, Ki.
PI3K (p120γ) (h) [Non-Radioactive Assay]
(§7) PI3K (p120γ) (h) is incubated in assay buffer containing 10 M phosphatidylinositol-4, 5-bisphosphate and MgATP (concentration as required). The reaction is initiated by the addition of the MgATP mix. After incubation for 30 minutes at room temperature, the reaction is stopped by the addition of stop solution containing EDTA and biotinylated phosphatidylinositol-3,4,5-trisphosphate. Finally, detection buffer is added, which contains europium-labelled anti-GST monoclonal antibody, GST-tagged GRP1 PH domain and streptavidin-allophycocyanin. The plate is then read in timeresolved fluorescence mode and the homogenous time-resolved fluorescence (HTRF) signal is determined according to the formula HTRF=10000×(Em665 nm/Em620 nm).
(§8) The kinase assays described herein were performed at Millipore UK Ltd, Dundee Technology Park, Dundee DD2 1SW, UK.

Data set [5] is described as follows: Compound stability in human liver microsomes. To be noted: for half-life at 5 μM: human liver microsomes 0.5 mg protein/mL, compound 5 μM, NADPH 1.0 mM, pH 7.4, 37° C., read-out: Human T1/2; for CLint scaled at 5 μM: liver microsomes, pH 7.4, in vivo CLint extrapolated from human liver microsome incubation. Format: in vitro ADME. The method, then:
as §1, §2, §3, §4, §5

The target in data set [6] is T3, PI3K (p110α/p85α) (h) (Homo sapiens, UniProt P42336).
T3 construct: purchased Millipore UK Ltd
T3 sequence (P42336 whole entry): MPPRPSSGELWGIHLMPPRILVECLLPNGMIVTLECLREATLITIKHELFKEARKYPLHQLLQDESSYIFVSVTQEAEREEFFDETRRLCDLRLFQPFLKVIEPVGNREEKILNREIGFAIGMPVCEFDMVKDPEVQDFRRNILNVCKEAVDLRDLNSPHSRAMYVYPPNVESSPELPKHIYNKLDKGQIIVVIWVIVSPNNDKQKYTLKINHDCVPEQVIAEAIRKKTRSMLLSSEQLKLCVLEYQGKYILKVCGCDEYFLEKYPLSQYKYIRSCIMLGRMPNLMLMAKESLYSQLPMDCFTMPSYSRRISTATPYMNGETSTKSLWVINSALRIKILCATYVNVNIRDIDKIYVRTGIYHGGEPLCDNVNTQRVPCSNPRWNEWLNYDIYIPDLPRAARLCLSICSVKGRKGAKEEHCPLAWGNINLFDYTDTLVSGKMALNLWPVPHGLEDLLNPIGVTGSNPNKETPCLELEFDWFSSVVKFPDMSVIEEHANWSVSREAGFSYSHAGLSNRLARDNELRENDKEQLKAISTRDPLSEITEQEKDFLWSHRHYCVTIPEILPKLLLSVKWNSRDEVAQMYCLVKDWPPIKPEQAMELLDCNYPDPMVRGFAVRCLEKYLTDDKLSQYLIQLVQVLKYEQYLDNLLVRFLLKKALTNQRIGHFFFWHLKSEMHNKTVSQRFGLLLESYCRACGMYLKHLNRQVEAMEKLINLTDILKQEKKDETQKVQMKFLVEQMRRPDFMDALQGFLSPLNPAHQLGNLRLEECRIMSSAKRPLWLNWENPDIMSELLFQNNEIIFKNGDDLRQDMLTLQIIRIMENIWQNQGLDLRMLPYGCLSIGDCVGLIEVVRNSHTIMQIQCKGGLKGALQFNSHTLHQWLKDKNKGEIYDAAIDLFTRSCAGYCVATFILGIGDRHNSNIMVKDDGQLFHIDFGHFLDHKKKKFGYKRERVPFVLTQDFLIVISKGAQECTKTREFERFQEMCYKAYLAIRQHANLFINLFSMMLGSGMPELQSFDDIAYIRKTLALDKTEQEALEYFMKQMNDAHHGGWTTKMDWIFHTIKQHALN
T3 sequence (P27986 whole entry partner): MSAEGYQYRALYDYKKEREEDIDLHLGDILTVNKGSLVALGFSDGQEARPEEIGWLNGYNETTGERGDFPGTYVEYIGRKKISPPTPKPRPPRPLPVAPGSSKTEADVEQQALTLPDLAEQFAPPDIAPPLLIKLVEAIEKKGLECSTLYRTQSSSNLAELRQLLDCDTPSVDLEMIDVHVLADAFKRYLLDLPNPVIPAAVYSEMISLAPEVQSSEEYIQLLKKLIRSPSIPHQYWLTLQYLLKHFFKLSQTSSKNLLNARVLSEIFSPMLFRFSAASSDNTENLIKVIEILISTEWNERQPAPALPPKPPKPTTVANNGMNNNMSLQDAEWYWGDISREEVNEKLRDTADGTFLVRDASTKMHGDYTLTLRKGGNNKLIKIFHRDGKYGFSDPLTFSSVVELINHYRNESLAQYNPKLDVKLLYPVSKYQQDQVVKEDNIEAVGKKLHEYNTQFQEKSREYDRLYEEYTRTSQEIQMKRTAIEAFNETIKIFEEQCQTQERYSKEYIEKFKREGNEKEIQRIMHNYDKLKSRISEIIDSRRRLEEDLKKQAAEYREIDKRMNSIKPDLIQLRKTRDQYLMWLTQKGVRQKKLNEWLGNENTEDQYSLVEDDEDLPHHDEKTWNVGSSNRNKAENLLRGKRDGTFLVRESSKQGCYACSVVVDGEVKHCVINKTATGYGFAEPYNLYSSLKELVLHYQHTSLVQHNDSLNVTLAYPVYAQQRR
Put plainly: PI3K (p110α/p85α) (h) non-radioactive HTRF kinase assay. Format: biochemical. The conditions noted are these: Kinase inhibition data; performed at Millipore UK Ltd. As for the experimental part: as §6
PI3K (p110α/p85α) (h) [Non-Radioactive Assay]
as §7, with “(p110α/p85α)” for “(p120γ)”, “μM phosphatidylinositol 4,5-bisphosphate” for “M phosphatidylinositol-4, 5-bisphosphate”, “ATP solution.” for “MgATP mix.”, “streptavidin allophycocyanin.” for “streptavidin-allophycocyanin.”
as §8

For data set [7], the target named is T4, PI3K (p110δ/p85α) (h) (Homo sapiens, UniProt O00329).
T4 construct: purchased Millipore UK Ltd
T4 sequence (O00329 whole entry): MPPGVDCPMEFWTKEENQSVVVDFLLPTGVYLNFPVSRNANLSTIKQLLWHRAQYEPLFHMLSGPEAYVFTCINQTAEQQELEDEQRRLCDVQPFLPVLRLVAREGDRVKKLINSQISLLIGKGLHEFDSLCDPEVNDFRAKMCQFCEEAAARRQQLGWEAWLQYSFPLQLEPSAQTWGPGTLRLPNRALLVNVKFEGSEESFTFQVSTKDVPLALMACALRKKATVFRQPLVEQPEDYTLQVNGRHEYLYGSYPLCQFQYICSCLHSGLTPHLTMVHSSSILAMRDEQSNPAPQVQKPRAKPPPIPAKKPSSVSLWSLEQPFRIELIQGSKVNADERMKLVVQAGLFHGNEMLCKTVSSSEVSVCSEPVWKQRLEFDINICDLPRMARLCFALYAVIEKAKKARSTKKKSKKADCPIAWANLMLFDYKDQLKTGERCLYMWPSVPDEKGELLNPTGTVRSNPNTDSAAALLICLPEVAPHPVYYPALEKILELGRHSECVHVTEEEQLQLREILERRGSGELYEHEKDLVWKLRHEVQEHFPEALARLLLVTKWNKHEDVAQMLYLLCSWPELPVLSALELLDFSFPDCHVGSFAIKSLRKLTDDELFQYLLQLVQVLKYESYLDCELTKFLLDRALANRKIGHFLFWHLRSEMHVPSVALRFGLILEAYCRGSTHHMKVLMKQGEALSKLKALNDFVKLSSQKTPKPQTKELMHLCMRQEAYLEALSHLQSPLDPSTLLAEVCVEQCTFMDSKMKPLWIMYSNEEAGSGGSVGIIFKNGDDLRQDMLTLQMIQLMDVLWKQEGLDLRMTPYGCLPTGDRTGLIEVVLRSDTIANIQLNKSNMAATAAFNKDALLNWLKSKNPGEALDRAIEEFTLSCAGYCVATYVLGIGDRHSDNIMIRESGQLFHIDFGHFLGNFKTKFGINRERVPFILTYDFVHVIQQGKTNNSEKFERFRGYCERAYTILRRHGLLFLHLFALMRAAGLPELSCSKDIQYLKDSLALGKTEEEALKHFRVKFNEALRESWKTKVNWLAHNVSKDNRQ
T4 sequence (P27986 whole entry partner): as the sequence (P27986 whole entry partner) above
Put plainly: PI3K (p110δ/p85α) (h) non-radioactive HTRF kinase assay. The conditions noted are these: Kinase inhibition data; performed at Millipore UK Ltd. Format: biochemical. As for the experimental part:
as §6
PI3K (p110δ/p85α) (h) [Non-Radioactive Assay]
as §7, with “PI3K (p110δ/p85α)” for “PI3K (p120γ)”, “10 μM” for “10 M”
as §8

T1 sequence (P42338 whole entry): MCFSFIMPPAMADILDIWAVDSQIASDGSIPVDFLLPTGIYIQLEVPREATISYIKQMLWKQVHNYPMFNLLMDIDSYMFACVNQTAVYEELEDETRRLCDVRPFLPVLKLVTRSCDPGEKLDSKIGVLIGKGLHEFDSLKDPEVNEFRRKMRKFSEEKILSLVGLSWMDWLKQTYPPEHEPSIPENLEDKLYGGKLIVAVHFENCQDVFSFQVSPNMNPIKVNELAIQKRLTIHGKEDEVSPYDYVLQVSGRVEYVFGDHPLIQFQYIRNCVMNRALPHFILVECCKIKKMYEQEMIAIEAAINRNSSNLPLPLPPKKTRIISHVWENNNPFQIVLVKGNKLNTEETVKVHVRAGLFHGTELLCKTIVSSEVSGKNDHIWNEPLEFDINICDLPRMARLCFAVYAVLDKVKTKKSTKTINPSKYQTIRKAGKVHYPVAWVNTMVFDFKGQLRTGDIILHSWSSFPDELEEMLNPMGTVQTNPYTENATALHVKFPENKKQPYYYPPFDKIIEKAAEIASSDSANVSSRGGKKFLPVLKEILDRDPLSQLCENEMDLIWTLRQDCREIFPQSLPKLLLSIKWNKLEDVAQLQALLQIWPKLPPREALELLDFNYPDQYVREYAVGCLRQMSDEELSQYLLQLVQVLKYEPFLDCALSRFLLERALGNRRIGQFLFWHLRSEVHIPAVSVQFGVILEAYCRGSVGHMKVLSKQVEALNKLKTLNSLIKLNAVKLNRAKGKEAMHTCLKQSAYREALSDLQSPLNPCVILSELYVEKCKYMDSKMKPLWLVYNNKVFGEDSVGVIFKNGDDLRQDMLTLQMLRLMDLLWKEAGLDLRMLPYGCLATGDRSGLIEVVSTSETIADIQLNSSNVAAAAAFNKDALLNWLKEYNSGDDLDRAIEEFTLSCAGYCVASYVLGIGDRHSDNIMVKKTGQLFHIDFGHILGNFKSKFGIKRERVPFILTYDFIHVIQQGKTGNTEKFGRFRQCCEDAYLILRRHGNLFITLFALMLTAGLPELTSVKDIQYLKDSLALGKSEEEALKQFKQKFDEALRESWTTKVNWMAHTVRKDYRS
T1 sequence (P27986 whole entry partner): as the sequence (P27986 whole entry partner) above

In the case of `Cc1noc(-c2c(N)ncnc2N[C@@H](C)c2nc3cccc(-c4cnn(C)c4)c3c(=O)n2C2CC2)n1` [Ex. 66, (S)-2-(1-((6-amino-5-(3-methyl-1,2,4-oxadiazol-5-yl)pyrimidin-4-yl)amino)ethyl)-3-cyclopropyl-5-(1-methyl-1H-pyrazol-4-yl)quinazolin-4(3H)-one], in data set [1], the pIC50 was 5.74. Further, in data set [2], the CL/F came out at 39.3 mL/min/kg, the AUC(0-t) is 423 ng·h/mL, the half-life is 0.98 h and the Vd is 2.98 L/kg. This compound also registered a bioavailability in data set [2] of 96.2%. Also, in data set [3], the CLint scaled at 5 μM was 15.2 mL/min/kg and the half-life at 5 μM came out at 2.73 h. In data set [4], the negative-log IC50 (pIC50) was 6.06. For the same compound, in data set [5], the half-life at 5 μM amounted to 1.11 h and the CLint scaled at 5 μM was 26.2 mL/min/kg. Moreover, the pIC50 in data set [6] was 5.66. Moreover, the negative-log IC50 (pIC50) in data set [7] was 7.80.

In the case of `Cc1noc(-c2c(N)ncnc2N[C@@H](C)c2nc3cccc(-c4cnn(C)c4)c3c(=O)n2-c2ccccc2)n1` [Ex. 68, (S)-2-(1-((6-amino-5-(3-methyl-1,2,4-oxadiazol-5-yl)pyrimidin-4-yl)amino)ethyl)-5-(1-methyl-1H-pyrazol-4-yl)-3-phenylquinazolin-4(3H)-one], the pIC50 in data set [1] was 5.93. Also, in data set [2], the CL/F amounted to 5.83 mL/min/kg, the AUC(0-t) amounted to 2690 ng·h/mL, the half-life is 1.8 h and the Vd came to 0.89 L/kg. This compound also yielded a bioavailability in data set [2] of 70%. In data set [3], the CLint scaled at 5 μM was 17.6 mL/min/kg and the half-life at 5 μM worked out at 2.36 h. For the same compound, the pIC50 in data set [4] is 7.04. For the same compound, in data set [5], the half-life at 5 μM worked out at 1.22 h and the CLint scaled at 5 μM is 23.8 mL/min/kg. In addition, in data set [6], the pIC50 was 5.85. Further, the pIC50 in data set [7] was 8.40.

With `Cc1nnc(-c2c(N)ncnc2N[C@@H](C)c2nc3cccc(-c4cnn(C)c4)c3c(=O)n2-c2ccccc2)o1` [Ex. 69, (S)-2-(1-((6-amino-5-(5-methyl-1,3,4-oxadiazol-2-yl)pyrimidin-4-yl)amino)ethyl)-5-(1-methyl-1H-pyrazol-4-yl)-3-phenylquinazolin-4(3H)-one], the pIC50 in data set [1] was < 5.52. In data set [2], the CL/F came to 15 mL/min/kg, the AUC(0-t) was 1100 ng·h/mL, the half-life is 1.25 h and the Vd is 1.54 L/kg. In data set [2], this compound returned a bioavailability of 83%. In data set [3], the CLint scaled at 5 μM is 9.99 mL/min/kg and the half-life at 5 μM came out at 4.14 h. Further, in data set [4], the pIC50 was 5.93. For the same compound, in data set [5], the half-life at 5 μM was 2.31 h and the CLint scaled at 5 μM was 12.6 mL/min/kg. The pIC50 in data set [6] was < 5.52. Besides, in data set [7], the pIC50 was 7.66.

Regarding `CC[C@H](Nc1ncnc(N)c1-c1nc(C)no1)c1nc2cccc(-c3cnn(C)c3)c2c(=O)n1C1CC1` [Ex. 71, (S)-2-(1-((6-amino-5-(3-methyl-1,2,4-oxadiazol-5-yl)pyrimidin-4-yl)amino)propyl)-3-cyclopropyl-5-(1-methyl-1H-pyrazol-4-yl)quinazolin-4(3H)-one], the pIC50 in data set [1] is 6.12. For the same compound, in data set [2], the CL/F amounted to 64 mL/min/kg, the AUC(0-t) worked out at 256 ng·h/mL, the half-life is 1.07 h and the Vd was determined as 4.9 L/kg. In data set [2], this compound had a bioavailability of 85.5%. Further, the pIC50 in data set [4] is 6.32. For the same compound, the pIC50 in data set [6] was 5.88. Further, in data set [7], the pIC50 was 7.80.

As to `CC[C@H](Nc1ncnc(N)c1-c1nnc(C)o1)c1nc2cccc(-c3cnn(C)c3)c2c(=O)n1C1CC1` [Ex. 72, (S)-2-(1-((6-amino-5-(5-methyl-1,3,4-oxadiazol-2-yl)pyrimidin-4-yl)amino)propyl)-3-cyclopropyl-5-(1-methyl-1H-pyrazol-4-yl)quinazolin-4(3H)-one], in data set [1], the negative-log IC50 (pIC50) is < 5.52. Besides, in data set [2], the CL/F was 65.8 mL/min/kg, the AUC(0-t) stood at 270 ng·h/mL, the half-life is 0.98 h and the Vd was found to be 3.85 L/kg. In data set [2], this compound gave a bioavailability of 35.9%. For the same compound, the pIC50 in data set [4] was < 5.52. Moreover, the negative logarithm of the IC50 (pIC50) in data set [6] is < 5.52. Also, the pIC50 in data set [7] is 6.85.

The term pIC50 denotes −log10 of the IC50, conventionally taken in molar units. As a reminder, the CL/F is clearance divided by bioavailability, as obtained after extravascular dosing. What is called AUC(0-t) is the area under the concentration-time curve up to a stated or last time point. A low value points to low exposure. As usually defined, the bioavailability is the share of a dose that reaches the circulation, judged against a reference dose that is usually intravenous. Usually CLint scaled stands for a measure of how fast metabolising enzymes remove a compound, apart from limits set by blood flow.
